{
  "source": "patent US20060115895A1",
  "about": "“Fish disease models and uses thereof” (priority 2002, published 2006)",
  "key": {"[1]": {"tested_on": "zebrafish of tup background", "experiment": "DMSO tolerance of zebrafish", "type": "in vivo", "procedure": "Zebrafish of tup background were tested in batches of 10. DMSO was added to fish water on day 3 and fish examined daily up to day 9. […] Motoric behaviour was also normal."}, "[2]": {"tested_on": "epilepsy induced in the fish", "experiment": "anti-seizure effect in fish with induced epilepsy", "type": "in vivo", "conditions": "concentration in fish water", "from_the_text": "Continuing with the example of epilepsy by way of illustration, in embodiments of this aspect of the present invention a known drug may be administered to the fish, for example sodium valproate. Epilepsy is then induced in the fish. Additional test substances, such as candidate chemicals, or genetic mutation may then be applied to the fish and assessed for their anti-epileptogenic effect. […] Any combination of these and/or other drugs or test substances may be arrayed in every possible combination and tested for synergistic efficacy. Appropriate doses vary from 1 nM to 100 mM, e.g. 0.1 μM to 10 mM, with 100 uM being a reasonable starting concentration to assess."}, "[3]": {"tested_on": "interleukin 11 transgene (tetracycline inducible system)", "conditions": "mouse, in vivo; cited from earlier work"}, "fish reared in nicotine [4]": {"tested_on": "fish reared in nicotine", "procedure": "(§1) Fish were reared in nicotine from 2 dpf (immediately after hatching) to 7 d.p.f. at concentrations (in the fish water) of 0.5, 2.5, 5, 25, 50 ug/ml (5 fish per test group). The nicotine medium was then removed and replaced with E3M (embryo medium) at 7 d.p.f. They were then challenged at 8 d.p.f. with 2.5 ug/ml nicotine in 3% methyl cellulose.\nDetails of the toxicity dose/response experiment are given below: […]"}, "fish reared in nicotine [5]": {"tested_on": "fish reared in nicotine", "conditions": "for fish attracted to nicotine impregnated methyl cellulose: previously bathed at 5 ug/ml, 5 fish per group; for response/preference to nicotine: challenged 8 d.p.f. with 2.5 ug/ml nicotine in 3% methyl cellulose", "procedure": "as §1"}, "[6]": {"conditions": "1% DMSO (10 ul/ml), added day 3, examined daily up to day 9"}},
  "note": "Like-named read-outs stand apart in the source and are kept apart here.",
  "data": [
    {"smiles": "C[S+](C)[O-]", "note": "[DMSO, dimethyl sulphoxide]", "values": [
      {"measurement": "abnormality on detailed examination under dissecting microscope", "setting": "[1]; [6]", "result": "no abnormality was detected"},
      {"measurement": "motoric behaviour", "setting": "[1]; [6]", "result": "normal"},
      {"measurement": "DMSO concentration zebrafish can tolerate", "setting": "[1]; final concentration in fish water", "result": 1, "unit": "%"}
    ]},
    {"smiles": "CN1C(=O)CN=C(c2ccccc2)c2cc(Cl)ccc21", "note": "[diazepam]", "values": [
      {"measurement": "concentration showing therapeutic effects in monotherapy", "setting": "[2]", "result": 35, "unit": "µM"}
    ]},
    {"smiles": "C[C@H]1c2cccc(O)c2C(=O)C2=C(O)[C@]3(O)C(=O)C(C(N)=O)=C(O)[C@@H](N(C)C)[C@@H]3[C@@H](O)[C@@H]21", "note": "[doxycycline]", "values": [
      {"measurement": "toxicity to embryos treated in utero, pups or adults", "setting": "[3]", "result": "no apparent toxicity"}
    ]},
    {"smiles": "CN1CCCC1c1cccnc1", "note": "(stereo not shown) [nicotine]", "values": [
      {"measurement": "escape response when prodded", "setting": "fish reared in nicotine [4]; 0.5 ug/ml, 3 d.p.f.", "result": "escape response as above"},
      {"measurement": "survival", "setting": "fish reared in nicotine [4]; 0.5 ug/ml, 3 d.p.f.", "result": "all alive"},
      {"measurement": "escape response when prodded", "setting": "fish reared in nicotine [4]; 0.5 ug/ml, 4 d.p.f.", "result": "escape response as above"},
      {"measurement": "survival", "setting": "fish reared in nicotine [4]; 0.5 ug/ml, 4 d.p.f.", "result": "all alive"},
      {"measurement": "escape response when prodded", "setting": "fish reared in nicotine [4]; 2.5 ug/ml, 3 d.p.f.", "result": "escape response as above"},
      {"measurement": "survival", "setting": "fish reared in nicotine [4]; 2.5 ug/ml, 3 d.p.f.", "result": "all alive"},
      {"measurement": "escape response when prodded", "setting": "fish reared in nicotine [4]; 2.5 ug/ml, 4 d.p.f.", "result": "escape response as above"},
      {"measurement": "survival", "setting": "fish reared in nicotine [4]; 2.5 ug/ml, 4 d.p.f.", "result": "all alive"},
      {"measurement": "escape response when prodded", "setting": "fish reared in nicotine [4]; 5.0 ug/ml, 3 d.p.f.", "result": "escape response as above"},
      {"measurement": "survival", "setting": "fish reared in nicotine [4]; 5.0 ug/ml, 3 d.p.f.", "result": "all alive"},
      {"measurement": "escape response when prodded", "setting": "fish reared in nicotine [4]; 5.0 ug/ml, 4 d.p.f.", "result": "escape response as above"},
      {"measurement": "survival", "setting": "fish reared in nicotine [4]; 5.0 ug/ml, 4 d.p.f.", "result": "all alive"},
      {"measurement": "escape response when prodded", "setting": "fish reared in nicotine [4]; 25 ug/ml, 3 d.p.f.", "result": "twitch but no escape response when prodded"},
      {"measurement": "survival", "setting": "fish reared in nicotine [4]; 25 ug/ml, 3 d.p.f.", "result": "all alive"},
      {"measurement": "escape response when prodded", "setting": "fish reared in nicotine [4]; 25 ug/ml, 4 d.p.f.", "result": "twitch but no escape response when prodded"},
      {"measurement": "survival", "setting": "fish reared in nicotine [4]; 25 ug/ml, 4 d.p.f., 5 fish per group", "result": "4 dead, 1 alive"},
      {"measurement": "escape response when prodded", "setting": "fish reared in nicotine [4]; 50 ug/ml, 3 d.p.f.", "result": "twitch but no escape response when prodded"},
      {"measurement": "survival", "setting": "fish reared in nicotine [4]; 50 ug/ml, 3 d.p.f.", "result": "all alive"},
      {"measurement": "survival", "setting": "fish reared in nicotine [4]; 50 ug/ml, 4 d.p.f.", "result": "all, dead"},
      {"measurement": "toxicity", "setting": "fish reared in nicotine [5]; 25 ug/ml in fish water from 2 dpf", "result": "Toxicity was seen"},
      {"measurement": "toxicity", "setting": "fish reared in nicotine [5]; 50 ug/ml in fish water from 2 dpf", "result": "Toxicity was seen"},
      {"measurement": "fish attracted to nicotine impregnated methyl cellulose", "setting": "fish reared in nicotine [5]; by 4 mins", "result": 2, "unit": "fish"},
      {"measurement": "fish attracted to nicotine impregnated methyl cellulose", "setting": "fish reared in nicotine [5]; by 5 mins", "result": 3, "unit": "fish"},
      {"measurement": "fish attracted to nicotine impregnated methyl cellulose", "setting": "fish reared in nicotine [5]; by 15 mins", "result": 4, "unit": "fish"},
      {"measurement": "response/preference to nicotine", "setting": "fish reared in nicotine [5]; previously bathed in 0.5 ug/ml", "result": "no response/preference"},
      {"measurement": "response/preference to nicotine", "setting": "fish reared in nicotine [5]; previously bathed in 2.5 ug/ml", "result": "no response/preference"}
    ]}
  ]
}
